These results are taken from ChEMBL document CHEMBL6178016, “Design, Synthesis, and Biological Evaluation of New PDE4 Inhibitors for the Treatment of Pressure Ulcers” (J Med Chem, 2025).

Calls of active or inactive are those of the source. The rule behind the calls is not given here.

One test has as its system Enterococcus faecalis. Description: Antibacterial activity against Enterococcus faecalis BNCC296862 assessed as reduction in bacterial colonies growth at 512 ug/ml measured after 24 hrs by agar plate method. It counts as functional, organism-based. The settings on record: dose 512.0 µg/ml.
The next test deals with Enterococcus faecium. Description: Antibacterial activity against Enterococcus faecium BNCC358275 assessed as reduction in bacterial colonies growth at 512 ug/ml measured after 24 hrs by agar plate method. Type of test: functional, organism-based. The settings on record: dose 512.0 µg/ml.
Test [1] has as its system RAW264.7. Description: Cytotoxicity against mouse RAW264.7 cells at 10 uM measured after 24 hrs by CCK-8 method. It counts as functional, cell-based.
For test [2], the target named is T1, 3',5'-cyclic-AMP phosphodiesterase 4D (Homo sapiens, UniProt Q08499). Description: Inhibition of PDE4D (unknown origin) at 1 uM relative to control.
The target of test [3] is T1, 3',5'-cyclic-AMP phosphodiesterase 4D. Put plainly: Inhibition of PDE4D (unknown origin).
Test [4] has as its system Rattus norvegicus. Put plainly: Antiinflammatory activity against male Sprague-Dawley rat pressure ulcer model assessed as appearance of orderly arranged cells administered as ointment by H and E staining based analysis. It counts as functional, organism-based.
Test [5] concerns Rattus norvegicus. Put plainly: Antiinflammatory activity against male Sprague-Dawley rat pressure ulcer model assessed as appearance of orderly arranged cells administered as ointment by Masson staining based analysis. Type of test: functional, organism-based.
Test [6] relates to Rattus norvegicus. Description: Antiinflammatory activity against male Sprague-Dawley rat pressure ulcer model assessed as reduction in TNF-alpha mRNA expression in skin administered as ointment by qRT-PCR analysis. Type of test: functional, organism-based.
The subject of test [7] is Rattus norvegicus. Description: Antiinflammatory activity against male Sprague-Dawley rat pressure ulcer model assessed as reduction in IL6 mRNA expression in skin administered as ointment by qRT-PCR analysis. It counts as functional, organism-based.
Test [8] has as its system Rattus norvegicus. Description: Antiinflammatory activity against male Sprague-Dawley rat pressure ulcer model assessed as appearance of thinner epidermal layer administered as ointment by H and E staining based analysis. It counts as functional, organism-based.
Test [9] has as its system Rattus norvegicus. Description: Antiinflammatory activity against male Sprague-Dawley rat pressure ulcer model assessed as decrease in inflammatory cells in dermis administered as ointment by H and E staining based analysis. It counts as functional, organism-based.
Test [10] relates to Rattus norvegicus. Description: Antiinflammatory activity against male Sprague-Dawley rat pressure ulcer model assessed as appearance of thinner epidermal layer administered as ointment by Masson staining based analysis. It counts as functional, organism-based.
For test [11], the system named is Rattus norvegicus. Description: Antiinflammatory activity against male Sprague-Dawley rat pressure ulcer model assessed as increase in number of fibroblasts administered as ointment by H and E staining based analysis. Type of test: functional, organism-based.
Test [12] relates to Rattus norvegicus. Description: Antiinflammatory activity against male Sprague-Dawley rat pressure ulcer model assessed as wound healing rate administration as ointment measured after 7 days (reference value: 70%). Type of test: functional. Particulars: time 7 day.
The test system of test [13] is Rattus norvegicus. Description: Antiinflammatory activity against male Sprague-Dawley rat pressure ulcer model assessed as increase in number of fibroblasts administered as ointment by Masson staining based analysis. Type of test: functional, organism-based.
Test [14] concerns Rattus norvegicus. Description: Antiinflammatory activity against male Sprague-Dawley rat pressure ulcer model assessed as decrease in inflammatory cells in dermis administered as ointment by Masson staining based analysis. It counts as functional, organism-based.
Test [15] deals with RAW264.7. Description: Cytotoxicity against mouse RAW264.7 cells measured after 24 hrs by CCK-8 method. Type of test: functional.
The subject of test [16] is RAW264.7. Put plainly: Antiinflammatory activity against mouse RAW264.7 cells assessed as inhibition of LPS-induced TNF-alpha release preincubated for 2 hrs followed by LPS stimulation and measured after 4 hrs by RT-PCR analysis. It counts as functional, cell-based.
The subject of test [17] is RAW264.7. Description: Antiinflammatory activity against mouse RAW264.7 cells assessed as inhibition of LPS-induced NO release preincubated for 2 hrs followed by LPS stimulation and measured after 4 hrs by RT-PCR analysis. It counts as functional, cell-based.

T1 sequence (Q08499 whole entry): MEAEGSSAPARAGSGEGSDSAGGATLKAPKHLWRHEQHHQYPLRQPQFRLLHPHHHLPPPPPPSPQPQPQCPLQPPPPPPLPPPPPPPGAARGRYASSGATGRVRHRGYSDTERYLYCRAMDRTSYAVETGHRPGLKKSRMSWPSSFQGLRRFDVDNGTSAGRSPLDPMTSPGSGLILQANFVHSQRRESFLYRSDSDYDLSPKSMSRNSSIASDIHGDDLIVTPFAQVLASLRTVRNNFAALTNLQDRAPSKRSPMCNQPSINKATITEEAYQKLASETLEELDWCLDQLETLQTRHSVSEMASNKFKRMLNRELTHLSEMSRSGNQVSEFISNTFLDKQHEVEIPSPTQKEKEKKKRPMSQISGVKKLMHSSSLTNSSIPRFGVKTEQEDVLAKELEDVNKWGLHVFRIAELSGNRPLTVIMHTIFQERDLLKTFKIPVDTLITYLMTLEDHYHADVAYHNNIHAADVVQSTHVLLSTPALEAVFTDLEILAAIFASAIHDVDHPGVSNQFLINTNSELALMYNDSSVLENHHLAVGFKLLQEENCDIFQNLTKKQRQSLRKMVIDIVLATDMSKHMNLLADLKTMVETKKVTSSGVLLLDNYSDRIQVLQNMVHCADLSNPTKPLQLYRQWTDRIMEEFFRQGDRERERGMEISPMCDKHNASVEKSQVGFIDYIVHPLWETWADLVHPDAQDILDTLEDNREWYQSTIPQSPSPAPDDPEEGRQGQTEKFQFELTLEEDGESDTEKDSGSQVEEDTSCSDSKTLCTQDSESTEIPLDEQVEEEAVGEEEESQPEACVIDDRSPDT

With `CN[C@H](CC(C)C)C(=O)N[C@H]1C(=O)N[C@@H](CC(N)=O)C(=O)N[C@H]2C(=O)N[C@H]3C(=O)N[C@H](C(=O)N[C@H](C(=O)O)c4cc(O)cc(O)c4-c4cc3ccc4O)[C@H](O)c3ccc(c(Cl)c3)Oc3cc2cc(c3O[C@@H]2O[C@H](CO)[C@@H](O)[C@H](O)[C@H]2O[C@H]2C[C@](C)(N)[C@H](O)[C@H](C)O2)Oc2ccc(cc2Cl)[C@H]1O`, the result in the test on Enterococcus faecalis and in the test with Enterococcus faecium was Active.

In the case of `Cn1c(=O)c2c(ncn2CCCC(=O)NNC(=O)c2cc3nccc(-c4ccc(OC(F)F)c(OCC5CC5)c4)n3n2)n(C)c1=O`, the outcome in the test with RAW264.7 [1] was inactive. In [2], this molecule returned an inhibition of 95.6%.

Regarding `Cn1c(=O)c2c(nc(NCc3ccccc3)n2CCCC(=O)NNC(=O)c2cccc3[nH]c(-c4ccc(OC(F)F)c(OCC5CC5)c4)nc23)n(C)c1=O`, the result in the test with RAW264.7 [1] was inactive. The molecule also displayed an inhibition in test [2] of 85.7%.

Turning to `Cn1c(=O)c2c(nc(Br)n2CCCC(=O)NNC(=O)c2cc3nccc(-c4ccc(OC(F)F)c(OCC5CC5)c4)n3n2)n(C)c1=O`, the result in the test on RAW264.7 [1] was inactive. In test [2], this molecule registered an inhibition of 94.7%. Besides, 276 nM corresponded to half-maximal inhibition in [3] (IC50).

Turning to `Cn1c(=O)c2c(nc(NCc3ccccc3)n2CCCC(=O)NNC(=O)c2coc(-c3ccc(OC(F)F)c(OCC4CC4)c3)n2)n(C)c1=O`, in the test on RAW264.7 [1], the result was inactive. In [2], this molecule returned an inhibition of 85.5%.

As for `Cn1c(=O)c2c(nc(NCc3ccccc3)n2CCCC(=O)NNC(=O)c2cccc3[nH]c(-c4ccc(OC(F)F)c(OC(F)F)c4)nc23)n(C)c1=O`, the outcome in the test on RAW264.7 [1] was inactive. Besides, the inhibition in test [2] turned out to be 92.4%.

With `Cn1c(=O)c2c(nc(NCc3ccccc3)n2CCCC(=O)NNC(=O)c2cnn3c(-c4ccc(OC(F)F)c(OCC5CC5)c4)ccnc23)n(C)c1=O`, in the test with RAW264.7 [1], the result was inactive. Besides, in [2], the inhibition is 30.3%.

Take `Cn1c(=O)c2c(ncn2CCC(=O)NNC(=O)c2c[nH]c(-c3ccc(OC(F)F)c(OC(F)F)c3)n2)n(C)c1=O`: the outcome in the test on RAW264.7 [1] was inactive. In [2], this molecule displayed an inhibition of 82.1%.

As for `O=C(Nc1c(Cl)cncc1Cl)c1ccc(OC(F)F)c(OCC2CC2)c1` [ROFLUMILAST], the result in the test with Rattus norvegicus [4], in the test on Rattus norvegicus [5], in the test with Rattus norvegicus [6], in the test on Rattus norvegicus [7], with Rattus norvegicus [8] and with Rattus norvegicus [9] was Active. For the same molecule, the outcome in the test with Rattus norvegicus [10], with Rattus norvegicus [11], with Rattus norvegicus [13] and with Rattus norvegicus [14] was Active. Besides, the Activity in the test on Rattus norvegicus [12] amounted to 81%.

Regarding `Cn1c(=O)c2c(nc(Br)n2CCCC(=O)NNC(=O)c2cccc3[nH]c(-c4ccc(OC(F)F)c(OC(F)F)c4)nc23)n(C)c1=O`, the outcome in the test with RAW264.7 [1] was inactive. Moreover, the inhibition in test [2] stood at 96.8%.

Regarding `Cn1c(=O)c2c(ncn2CCC(=O)NNC(=O)c2csc(-c3ccc(OC(F)F)c(OCC4CC4)c3)n2)n(C)c1=O`, in the test on RAW264.7 [1], the outcome was inactive. In test [2], this molecule returned an inhibition of 87.5%.

On to `Cn1c(=O)c2c(ncn2CCC(=O)NNC(=O)c2cnn3c(-c4ccc(OC(F)F)c(OCC5CC5)c4)ccnc23)n(C)c1=O`, for which the result in the test with RAW264.7 [1] was inactive. The same molecule showed an inhibition in test [2] of 38.8%.

Take `Cn1c(=O)c2c(ncn2CCC(=O)NNC(=O)c2cccc3[nH]c(-c4ccc(OC(F)F)c(OCC5CC5)c4)nc23)n(C)c1=O`: in the test with RAW264.7 [1], the outcome was inactive. Further, the inhibition in test [2] came out at 96.9%.

As to `Cn1c(=O)c2c(ncn2CCCC(=O)NNC(=O)c2coc(-c3ccc(OC(F)F)c(OCC4CC4)c3)n2)n(C)c1=O`, in the test on RAW264.7 [1], the outcome was inactive. The inhibition in test [2] was 92.4%.

Turning to `Cn1c(=O)c2c(nc(NCc3ccccc3)n2CCCC(=O)NNC(=O)c2cc3nccc(-c4ccc(OC(F)F)c(OCC5CC5)c4)n3n2)n(C)c1=O`, the result in the test on RAW264.7 [1] was inactive. Moreover, the inhibition in test [2] was 43%.

Regarding `Cn1c(=O)c2c(ncn2CCCC(=O)NNC(=O)c2cnn3c(-c4ccc(OC(F)F)c(OCC5CC5)c4)ccnc23)n(C)c1=O`, in the test on RAW264.7 [1], the result was inactive. The same molecule displayed an inhibition in test [2] of 85.7%.

In the test on RAW264.7 [15], `COc1ccc(C2CNC(=O)C2)cc1OC1CCCC1` (stereo not given) [ROLIPRAM] gave a CC50 above 60000 nM. For the same molecule, the IC50 in the test with RAW264.7 [16] is 39900 nM; in the test with RAW264.7 [17], above 60000 nM.

In the test on RAW264.7 [15], `Cn1c(=O)c2c(ncn2CCCC(=O)NNC(=O)c2cccc3[nH]c(-c4ccc(OC(F)F)c(OC(F)F)c4)nc23)n(C)c1=O` had a CC50 of 76800 nM. In addition, the result in the test on RAW264.7 [1] was inactive. In addition, the IC50 with RAW264.7 [16] was above 60000 nM; in the test on RAW264.7 [17], 2180 nM; in test [3] it was 41 nM. The inhibition in test [2] worked out at 97.9%.

As to `Cn1c(=O)c2c(nc(Br)n2CCCC(=O)NNC(=O)c2coc(-c3ccc(OC(F)F)c(OCC4CC4)c3)n2)n(C)c1=O`, in the test with RAW264.7 [1], the result was inactive. This molecule returned an inhibition in [2] of 85.3%.

As for `Cn1c(=O)c2c(nc(Br)n2CCCC(=O)NNC(=O)c2cccc3[nH]c(-c4ccc(OC(F)F)c(OCC5CC5)c4)nc23)n(C)c1=O`, the outcome in the test on RAW264.7 [1] was inactive. Also, the inhibition in [2] is 99.2%.

As for `Cn1c(=O)c2c(nc(NCc3ccccc3)n2CCCC(=O)NNC(=O)c2csc(-c3ccc(OC(F)F)c(OCC4CC4)c3)n2)n(C)c1=O`, the outcome with RAW264.7 [1] was inactive. Moreover, the inhibition in [2] amounted to 89.9%.

In the case of `Cn1c(=O)c2c(ncn2CCC(=O)NNC(=O)c2cccc3[nH]c(-c4ccc(OC(F)F)c(OC(F)F)c4)nc23)n(C)c1=O`, the result with RAW264.7 [1] was inactive. Moreover, in test [2], the inhibition worked out at 92.6%. This molecule came in with an IC50 in test [3] of 29 nM.

With `Cn1c(=O)c2c(nc(Br)n2CCCC(=O)NNC(=O)c2csc(-c3ccc(OC(F)F)c(OCC4CC4)c3)n2)n(C)c1=O`, the outcome in the test on RAW264.7 [1] was inactive. The inhibition in test [2] was 97.2%.

`Cn1c(=O)c2c(ncn2CCCC(=O)NNC(=O)c2cccc3[nH]c(-c4ccc(OC(F)F)c(OCC5CC5)c4)nc23)n(C)c1=O`: in the test with RAW264.7 [1], the result was inactive. Also, the inhibition in [2] turned out to be 96.8%.

With `Cn1c(=O)c2c(ncn2CCCC(=O)NNC(=O)c2csc(-c3ccc(OC(F)F)c(OCC4CC4)c3)n2)n(C)c1=O`, the result in the test on RAW264.7 [1] was inactive. The inhibition in [2] was 98.4%.

For `Cn1c(=O)c2c(ncn2CCC(=O)NNC(=O)c2c[nH]c(-c3ccc(OC(F)F)c(OCC4CC4)c3)n2)n(C)c1=O`, the outcome in the test on RAW264.7 [1] was inactive. The inhibition in test [2] is 96.4%.

In the case of `Cn1c(=O)c2c(ncn2CCC(=O)NNC(=O)c2coc(-c3ccc(OC(F)F)c(OCC4CC4)c3)n2)n(C)c1=O`, the outcome with RAW264.7 [1] was inactive. The molecule further came in with an inhibition in test [2] of 63%.
